Laboratory results published in PMC11672637, “7-O-Carboxylic Acid-Substituted 3-O-Alkyl Difluoroquercetin; An Aztreonam-Potentiating Agent Against Carbapenemase-Producing Pseudomonas aeruginosa Through Simultaneous Inhibition of Metallo-β-Lactamase and Efflux Pump” (Antibiotics, 2024).
Like-named read-outs stand apart in the source and are kept apart here.

What was measured:
Type in all cases: cell-based, P. aeruginosa
[1] = tested on: PA-026, blaNDM; experiment: MIC / checkerboard with ATM; details: for MIC: Pseudomonas aeruginosa, read-out: MIC of ATM with 5, PA-026
[2] = tested on: PA-038, blaNDM; experiment: MIC / checkerboard with ATM; details: for MIC: Pseudomonas aeruginosa, read-out: MIC of ATM with 5, PA-038
[3] = tested on: PA-044, blaNDM; experiment: MIC / checkerboard with ATM; details: for MIC: Pseudomonas aeruginosa, read-out: MIC of ATM with 5, PA-044
[4] = tested on: All CPPA (n = 26); experiment: MIC distribution over clinical isolates; details: for inhibition at 1 µg/mL / inhibition at 2 µg/mL / inhibition at 4 µg/mL: Pseudomonas aeruginosa; for inhibition at 1 µg/mL: read-out: Cumulative % inhibition by ATM, 5 at 1 mg/L; for inhibition at 2 µg/mL: read-out: Cumulative % inhibition by ATM, 5 at 2 mg/L; for inhibition at 4 µg/mL: read-out: Cumulative % inhibition by ATM, 5 at 4 mg/L

Question: Which results are given for `CC(C)(C)CCOc1c(-c2ccc(F)c(F)c2)oc2cc(OCC(=O)O)cc(O)c2c1=O` [Compound 5, 2-((2-(3,4-Difluorophenyl)-3-(3,3-dimethylbutoxy)-5-hydroxy-4-oxo-4H-chromen-7-yl)oxy)acetic Acid]?
Answer: Susceptibility to ATM ([1]; PA-026, ATM/5): S (S (sensitive, MIC ≤ 8 mg/L)); FD (fold decrease in MIC of ATM with 5) ([1]; PA-026, lowest-FICI combination): 4; MIC ([1]; 5 at 1 mg/L): 4 µg/mL; MIC ([1]; 5 at 2 mg/L): 4 µg/mL; MIC ([1]; 5 at 4 mg/L): 2 µg/mL; MIC ([1]; 5 at 8 mg/L): 2 µg/mL; MIC ([1]; 5 at 16 mg/L): 1 µg/mL; MIC ([1]; 5 at 32 mg/L): 1 µg/mL; MIC ([1]; 5 at 64 mg/L): 1 µg/mL; Activity (FICI class) ([2]; PA-038): S (S (Synergy, FICI ≤ 0.5)); Concentrations of ATM and 5 at lowest FICI (ATM/5) ([2]; PA-038): 4/8; Lowest FICI (ATM/5) ([2]; PA-038): 0.27; Minimum concentration of 5 to make sensitive to ATM ([2]; PA-038): 4 mg/L; Susceptibility to ATM ([2]; PA-038, ATM/5): S (S (sensitive, MIC ≤ 8 mg/L)); FD (fold decrease in MIC of ATM with 5) ([2]; PA-038, lowest-FICI combination): 4; MIC ([2]; 5 at 1 mg/L): 16 µg/mL; MIC ([2]; 5 at 2 mg/L): 16 µg/mL; MIC ([2]; 5 at 4 mg/L): 8 µg/mL; MIC ([2]; 5 at 8 mg/L): 4 µg/mL; MIC ([2]; 5 at 16 mg/L): 4 µg/mL; MIC ([2]; 5 at 32 mg/L): 4 µg/mL; MIC ([2]; 5 at 64 mg/L): 4 µg/mL; Activity (FICI class) ([3]; PA-044): S (S (Synergy, FICI ≤ 0.5)); Concentrations of ATM and 5 at lowest FICI (ATM/5) ([3]; PA-044): 4/8; Lowest FICI (ATM/5) ([3]; PA-044): 0.27; Minimum concentration of 5 to make sensitive to ATM ([3]; PA-044): 4 mg/L; Susceptibility to ATM ([3]; PA-044, ATM/5): S (S (sensitive, MIC ≤ 8 mg/L)); FD (fold decrease in MIC of ATM with 5) ([3]; PA-044, lowest-FICI combination): 4; MIC ([3]; 5 at 1 mg/L): 16 µg/mL; MIC ([3]; 5 at 2 mg/L): 16 µg/mL; MIC ([3]; 5 at 4 mg/L): 8 µg/mL; MIC ([3]; 5 at 8 mg/L): 4 µg/mL; MIC ([3]; 5 at 16 mg/L): 4 µg/mL; MIC ([3]; 5 at 32 mg/L): 4 µg/mL; MIC ([3]; 5 at 64 mg/L): 4 µg/mL; Clinical strains sensitized to ATM (MIC ≤ 8 mg/L) by combination with 5 [4]: 25 out of 26; CPPA isolates in which ATM/5 combination showed synergistic effects ([4]; 22 out of 26 isolates): 85%; inhibition at 1 µg/mL ([4]; ATM 0.5 mg/L): 0%; inhibition at 1 µg/mL ([4]; ATM 1 mg/L): 4%; inhibition at 1 µg/mL ([4]; ATM 2 mg/L): 19%; inhibition at 1 µg/mL ([4]; ATM 4 mg/L): 35%; inhibition at 1 µg/mL ([4]; ATM 8 mg/L): 46%; inhibition at 1 µg/mL ([4]; ATM 16 mg/L): 81%; inhibition at 1 µg/mL ([4]; ATM 32 mg/L): 100%; inhibition at 1 µg/mL ([4]; ATM 64 mg/L): 100%; inhibition at 2 µg/mL ([4]; ATM 0.5 mg/L): 4%; inhibition at 2 µg/mL ([4]; ATM 1 mg/L): 4%; inhibition at 2 µg/mL ([4]; ATM 2 mg/L): 23%; inhibition at 2 µg/mL ([4]; ATM 4 mg/L): 38%; inhibition at 2 µg/mL ([4]; ATM 8 mg/L): 46%; inhibition at 2 µg/mL ([4]; ATM 16 mg/L): 92%; inhibition at 2 µg/mL ([4]; ATM 32 mg/L): 100%; inhibition at 2 µg/mL ([4]; ATM 64 mg/L): 100%; inhibition at 4 µg/mL ([4]; ATM 0.5 mg/L): 4%; inhibition at 4 µg/mL ([4]; ATM 1 mg/L): 8%
